How the values were obtained:
Assay type in all cases: functional
[1] = test system: Schoenoplectiella juncoides; assay: Herbicidal activity against Schoenoplectiella juncoides assessed as killing at 10 g/a at 25 degC measured after 3 weeks
[2] = test system: Echinochloa oryzicola; assay: Herbicidal activity against Echinochloa oryzicola assessed as killing at 10 g/a at 25 degC measured after 3 weeks
[3] = test system: Pontederia vaginalis; assay: Herbicidal activity against Monochoria vaginalis assessed as killing at 1 g/a at 25 degC measured after 3 weeks
[4] = test system: Cyperus difformis; assay: Herbicidal activity against Cyperus difformis assessed as killing at 10 g/a at 25 degC measured after 3 weeks
[5] = test system: Schoenoplectiella juncoides; assay: Herbicidal activity against Schoenoplectiella juncoides assessed as killing at 1 g/a at 25 degC measured after 3 weeks
[6] = test system: Pontederia vaginalis; assay: Herbicidal activity against Monochoria vaginalis assessed as killing at 10 g/a at 25 degC measured after 3 weeks
[7] = Herbicidal activity against annual broad-leaf weeds assessed as killing at 1 g/a at 25 degC measured after 3 weeks
[8] = test system: Cyperus difformis; assay: Herbicidal activity against Cyperus difformis assessed as killing at 1 g/a at 25 degC measured after 3 weeks
[9] = Herbicidal activity against annual broad-leaf weeds assessed as killing at 10 g/a at 25 degC measured after 3 weeks
[10] = test system: Echinochloa oryzicola; assay: Herbicidal activity against Echinochloa oryzicola assessed as killing at 1 g/a at 25 degC measured after 3 weeks

SMILES	Activity [1]	Activity [2]	Activity [3]	Activity [4]	Activity [5]	Activity [6]	Activity [7]	Activity [8]	Activity [9]	Activity [10]
COCCN(C(=O)CCl)C(=C(C)C)c1ccc(C(C)(C)C)cc1	100%	100%	60%	100%	60%	100%	80%	60%	100%	80%
COC=C(c1ccccc1)N(CCOC)C(=O)CCl	40%	100%		60%		0%			0%	
COCCN(C(=O)CCl)C(=C(C)C)c1ccc(OC)cc1	100%	100%	80%	100%	80%	100%	0%	100%	100%	80%
CCOCCCN(C(=O)CCl)C(=C(C)C)c1ccccc1	100%	100%	0%	100%	40%	100%	40%	60%	100%	80%
CCCOCCN(C(=O)CCl)C(=C(C)C)c1ccccc1	100%	100%	100%	100%	80%	100%		100%	100%	100%
CC=C(c1ccccc1)N(CCOC)C(=O)CCl	100%	100%	0%	100%	0%	100%	0%	60%	100%	40%
COCCN(C(=O)CCl)C(=C(C)C)c1ccc(SC)cc1	100%	100%	0%	100%	0%	100%	100%	60%	100%	40%
CCC(C)=C(c1ccccc1)N(CCOC)C(=O)CCl	100%	100%	0%	100%	0%	100%	40%	80%	100%	80%
COCCN(C(=O)CCl)C(=C(C)C)c1ccc(C)cc1	100%	100%	60%	100%	80%	100%	80%	100%	100%	80%
CCCCCOCCN(C(=O)CCl)C(=C(C)C)c1ccccc1	60%	80%		80%		0%			80%	
CCOC(=O)CN(C(=O)CCl)C(=C(C)C)c1ccccc1	40%	100%		80%		40%			80%	
CCCCOCN(C(=O)CCl)c1c(CC)cccc1CC [BUTACHLOR]	100%	100%		100%		100%			100%	
COCCN(C(=O)CCl)C(=C(C)C)c1ccc(Br)cc1	100%	100%	100%	100%	80%	100%	80%	100%	100%	100%
COCCN(C(=O)CCl)C(=C(C)C)c1cccc(Cl)c1	100%	100%	60%	100%	80%	100%	80%	80%	100%	80%
CCC(CC)=C(c1ccccc1)N(CCOC)C(=O)CCl	100%	100%	0%	100%	0%	100%	0%	40%	80%	80%
COCCN(C(=O)CCl)C(=C(C)C)c1cccc(C)c1	100%	100%	100%	100%	100%	100%	100%	100%	100%	100%
COCCN(C(=O)CCl)C(=C(C)C)c1ccc(Cl)cc1	100%	100%	100%	100%	80%	100%	100%	100%	100%	100%
CCCCC=C(c1ccccc1)N(CCOC)C(=O)CCl	100%	80%		80%		100%			80%	

SMILES	Activity [1]	Activity [2]	Activity [3]	Activity [4]	Activity [5]	Activity [6]	Activity [7]	Activity [8]	Activity [9]	Activity [10]
CC(C)=C(c1ccccc1)N(CCCOC(C)C)C(=O)CCl	100%	100%		100%		100%			100%	
COCCN(C(=O)CCl)C(=C(C)C)c1cc(C(C)C)ccc1C	100%	100%	0%	100%	0%	100%		0%	100%	60%
COCCN(C(=O)CCl)C(=C(C)C)c1cccc(Oc2ccc(Cl)cc2)c1	80%	100%		100%		100%			100%	
COCCN(C(=O)CCl)C(=C(C)C)c1ccccc1OC	100%	100%	0%	80%	0%	100%	0%	0%		0%
CC(C)=C(c1ccccc1)N(CCOCC(F)(F)F)C(=O)CCl	80%	100%		100%		60%			60%	
COC(=O)C(C)N(C(=O)CCl)C(=C(C)C)c1ccccc1 (centres undefined)	100%	100%		80%		80%			80%	
COCCN(C(=O)CCl)C(=C(C)C)c1ccc(C)o1	100%	100%		100%		100%			100%	
CSCCN(C(=O)CCl)C(=C(C)C)c1ccccc1	20%	60%		0%		0%			0%	
C=C(c1ccccc1)N(CCOC)C(=O)CCl	60%	100%		80%		40%			80%	
CCOC(CN(C(=O)CCl)C(=C(C)C)c1ccccc1)OCC	100%	100%	0%	100%	0%	100%		40%	100%	0%
COCCN(C(=O)CCl)C(=C(C)C)c1cccc2ccccc12	60%	100%		80%		60%			60%	
CCOC(=O)C(CC)N(C(=O)CCl)C(=C(C)C)c1ccccc1 (centres undefined)	60%	80%		40%		40%			80%	
CC(C)=C(c1ccccc1)N(CCOC/C=C/c1ccccc1)C(=O)CCl	40%	20%		0%		0%			0%	
COCCN(C(=O)CCl)C(=C(C)C)c1ccc(OC)c(OC)c1	100%	100%	60%	100%	60%	100%		80%	100%	80%
CCOC(=O)C(C)N(C(=O)CCl)C(=C(C)C)c1ccccc1 (centres undefined)	100%	100%		100%		100%			100%	
C/C=C/COCCN(C(=O)CCl)C(=C(C)C)c1ccccc1	100%	100%		100%		100%			80%	
COCCN(C(=O)CCl)C(=C(C)C)c1ccco1	100%	100%	0%	100%	40%	100%		20%	100%	100%
